From US20210015819A1, “METHODS FOR TREATMENT OF CANCERS WITH EGFR ACTIVATING MUTATIONS” (Board of Regents, The University of Texas System, priority 2018, published 2021)
Where two headings read alike, the source gives them in different places.

Test system: YUL0019 PR8 cells
Test: Drug sensitivity of poziotinib resistant YUL0019 cells (FIG. 8)
Format: cell-based

For `Cc1csc(-c2nnc(Nc3ccc(Oc4ncccc4-c4ccnc(N)n4)cc3)c3ccccc23)c1` [AMG 900], the “Sensitivity of YUL0019 PR8 (poziotinib resistant) cells” value (“Sensitivity of YUL0019 PR8” for short) (listed as AMG900) was “sensitive” and the “Sensitivity of YUL0019 PR8” value (listed as AMG-900) was “highly sensitive”.
For `CN1CC[C@H](c2c(O)cc(O)c3c(=O)cc(-c4ccccc4Cl)oc23)[C@H](O)C1` [Alvocidib], the “Sensitivity of YUL0019 PR8” value was “highly sensitive”.
With `CC[C@@H]1C(=O)N(C)c2cnc(Nc3ccc(C(=O)N[C@H]4CC[C@H](N5CCN(CC6CC6)CC5)CC4)cc3OC)nc2N1C(C)C` [BI6727 (Volasertib)] the “Sensitivity of YUL0019 PR8” value was “highly sensitive”.
In the case of `Cc1ccc(C(=O)N(CCCN)[C@@H](c2nc3cc(Cl)ccc3c(=O)n2Cc2ccccc2)C(C)C)cc1` [Ispinesib], the “Sensitivity of YUL0019 PR8” value is reported as “highly sensitive” and the “Sensitivity of YUL0019 PR8” value (listed as ispinasib) is reported as “sensitive”.
In the case of `COc1cc(Nc2ncc3c(n2)-c2ccc(Cl)cc2C(c2c(F)cccc2OC)=NC3)ccc1C(=O)O` [MLN8237 (Alisertib)], the “Sensitivity of YUL0019 PR8” value (listed as Alisertib) is reported as “sensitive” and the “Sensitivity of YUL0019 PR8” value (listed as alisertib) is reported as “highly sensitive”.
`C=CC(=O)N1CCC(Oc2cc3c(Nc4ccc(Cl)c(Cl)c4F)ncnc3cc2OC)CC1` [poziotinib, 1-[4-[4-(3,4-dichloro-2-fluoroanilino)-7-methoxyquinazolin-6-yl]oxypiperidin-1-yl]prop-2-en-1-one] was tested, and the “Sensitivity of YUL0019 PR8” value was “resistant”.
